From patent US6321750A, “Condom lubricants with zinc salts as anti-viral additives” (priority 1999, dated 2001)
“Also recorded” adds a separate entry of the source. Read-outs that look alike come from different tables or passages of the source.

What was measured:
forearm = test: Irritation test on forearm / skin; assay type: in vivo, human
Procedure: Zinc acetate was purchased from Pfaltz and Bauer (Waterbury, Connecticut). About 0.5 grams were mixed with several drops of distilled water at room temperature. […] The aqueous mixture was rubbed into an area about 3 cm in diameter on the forearm of […] and caused no irritation. Subsequently, about 0.5 grams of the salt were dissolved in a few drops of distilled water, then 10 ml K-Y Lubricating Jelly (sold by Johnson and Johnson, New Brunswick, N.J.) was added to form a gel mixture containing about 5% zinc acetate (w/v). This commercially available mixture contains purified water, hydroxyethyl-cellulose as a thickening agent, glycerin as a lubricant, glucono-delta-lactate to prevent crystallization, chlorhexidine gluconate as a preservative, and sodium hydroxide to reduce the acidity.

HIV = HIV precipitation test; details: 2% ZnAc with equal volume of undiluted viral stock
Procedure: Precipitation tests using HIV were also carried out Biotech Research Laboratories, using 2% ZnAc which was mixed with an equal volume of undiluted viral stock, incubated for 24 hours, and centrifuged at 1500 rpm in a tabletop centrifuge for 5 minutes. The supernatant was sampled ([…]) and serially diluted by medium, at 1:10 followed by 2× dilutions (1:20, 1:40, 1:80, etc) to a maximum dilution of 1:10240. Each dilution was analyzed spectrophotometrically to determine the concentration of viruses suspended in solution. After sampling, each tube was hand-mixed and incubated for 24 hours. The solution near the top of the tube was sampled again, serially diluted, and tested using the ELISA assay. The tube was hand-mixed again, incubated for three more days, and sampled again to obtain Day 5 values.

[1] = Acidity tests: pH of 5% w/v zinc salt solutions; details: 5% w/v in distilled deionized water
H-9 lymphocytes = test: Toxicity to lymphocytes; assay type: cell-based
Procedure: (§1) In a first set of tests, 20 mg of zinc acetate powder (ZnAc, MW 183.4) was mixed in 1 ml RPMI cell culture medium (Whittaker Corp.). This 2% (w/v) salt mixture contained 7 mg/ml elemental Zn. […] Therefore, a small quantity of HCl was added until the mixture became clear; the pH was about 5.5. The Zn concentration was reduced by half (and the pH was raised somewhat) when an equal volume (1 ml) of cell-free high-titer HIV-1 viral stock was added. The zinc/virus mixture was stirred and incubated for 2 hours at 37° C. (i.e., normal body temperature).
(§2) Following this first incubation step, the zinc/virus mixtures were diluted at 1:10, 1:30, and 1:100 ratios using culture medium, and aliquots were added to equal volumes of culture media containing H-9 lymphocytes that had been pretreated overnight with 2 μg/ml Polybreen. The lymphocyte mixtures were incubated for three hours at 37° C.; zinc concentrations during this step were 180, 60, and 18 μg/ml for the 1:10, 1:30, and 1:100 dilutions.
A 2 ml aliquot from each dilution was mixed with an equal volume of 3% ZnAc dissolved in sterile distilled water; after mixing, the zinc concentration was 5.3 mg/ml Zn. These mixtures were incubated for 2 hours, then diluted with culture medium at 1:30, 1:100, and 1:1000 to reduce the toxicity of the zinc to lymphocytes. Four ml of lymphocytes were mixed with 4 ml of each zinc/virus mixture. The zinc/virus/cell mixtures were incubated at 37° C. for 3 hours; zinc concentrations were 88, 27, and 2.7 μg/ml in the 30, 100, and 1000 dilutions.

[2] = cited from earlier work
male genitals = test: Irritation test on male genitals / urethra; details: gel in K-Y Lubricating Jelly, about 5% w/v; passive and active rubbing
Procedure: In all examples, the test subjects were a monogamous married couple, free of genital herpes and all other known sexually transmitted viruses.
The mixture of zinc acetate in K-Y Lubricating Jelly was tested on the male genitals, passively at first and then with active rubbing.
About 0.5 grams were dissolved in several drops of distilled water and tested on the forearm and genitals.

[3] = water; cited from earlier work
HIV-1 = test: High-titer HIV infectivity test (two-step incubation, p24 ELISA); assay type: cell-based; details: for HIV infectivity: high-titer stock
Procedure: The initial set of HIV tests were carried out at Biotech Research Laboratories (Rockville, Md.). The HIV-1 viral isolate and H-9 cell line were originally supplied by Robert Gallo of the NCI.
as §1, §2
The cell aliquots were then washed twice, using culture medium, to remove free p24 proteins that are present in the initial viral stock. Such proteins will skew ELISA readings if not removed by washing. Cells were then resuspended in fresh medium containing 10% fetal calf serum (FCS) and cultured for 20 days. During this period, each tube was periodically sampled by hand-mixing the tube, withdrawing 100 μl of liquid from the top, and testing the sample for p24 antigens using ELISA assays.
A positive control was used at each dilution. Viral aliquots not treated with zinc were identically diluted, mixed with lymphocytes, cultured, and tested. Negative controls were also run, in which H-9 cells were plated and grown in the absence of any virus or zinc; these provided background levels that vary slightly from day to day, depending on factors such as spectrophotometer calibrations and rinsing conditions.

vagina = test: Irritation test in shallow region of the vagina (volunteer); assay type: in vivo, human
[4] = system: genitals (both persons, during intercourse); test: Irritation test of lubricant during intercourse / human volunteers; assay type: in vivo
From the text: Subsequently, the gel formulation was applied topically and used as a sexual lubricant during intercourse. Both people wiped off the excess with a tissue after intercourse, but neither person showered or washed off the lubricant until the following day. It caused no irritation to either person.

several cell lines = test: Zinc toxicity in several cell lines; details: read-out: concentration at which toxicity began to appear in mild form, all comparable

For Zinc acetate, the “irritation, forearm” value (forearm; about 0.5 g in several drops of distilled water) was “no irritation”, the “burning and irritation to the skin” value (forearm; dissolved in water alone) was “substantial amount of burning and irritation to the skin” and the “virus precipitation” value (HIV) was “substantial precipitation of the virus”. For the same substance, the “pH of solution (rounded)” value [1] was “about 6.2”, the pH of solution ([1]; 0.05 subtracted from meter reading, approximately accurate) was 6.27 and the cell mortality (H-9 lymphocytes; 88 μg/ml Zn, 3 h) was “significant cell mortality”. For the same substance, the lymphocyte mortality (H-9 lymphocytes; 1:10 dilution, 180 μg/ml Zn, 3 h) was “substantial mortality to the lymphocytes”, the lymphocyte growth (H-9 lymphocytes; 1:30 dilution, 60 μg/ml Zn, visual observation) was “retarded cell growth during the first few days” and the cell mortality (H-9 lymphocytes; lower levels (27 and 2.7 μg/ml Zn), 3 h) was “no cell mortality”. The ionization rate ([2]; in aqueous solution) was no more than 30%, the “Reported pK values” ([2]; in water, values below 2 refer to release of a single carboxy anion) was 1.03 and the “irritation, male genitals” value (male genitals) was “no irritation”. For the same substance, the Molar solubility [3] was 1.64, the Solubility [3] was 300 and the p24 concentrations (HIV-1; 1% zinc acetate 2 h, diluted 1:30 (60 μg/ml Zn), 20 days culture) was “indistinguishable from background levels”. The HIV infectivity (HIV-1; 1% zinc acetate 2 h, diluted 1:30 (60 μg/ml Zn)) was “completely eliminated”, the HIV infectivity (HIV-1; 1% zinc acetate 2 h, diluted 1:30 (60 μg/ml Zn), listed as ZnAc) was “completely abolished viral infectivity” and the HIV infectivity (HIV-1; 1% zinc acetate 2 h, diluted 1:100 (18 μg/ml Zn)) was “reduced and delayed”. For the same substance, the HIV infectivity (HIV-1; 1% zinc acetate 2 h, diluted 1:100 (18 μg/ml Zn), listed as ZnAc) was “suppressed and retarded HIV infectivity”, the “inhibition of HIV particles (summary of Examples 8-10)” value (HIV-1; two-step incubation assay, FIGS. 1-4) was “inhibited or entirely inactivated the HIV particles” and the “solubility in cell culture medium / water” value (20 mg in 1 ml RPMI culture medium containing protein) was “generated a precipitate in the culture medium”. The “solubility in water” value (general statement) was “highly soluble in water”, the “solubility in water” value (salt in a few drops of distilled water, room temperature) was “dissolved completely” and the “irritation, vagina” value (vagina; dissolved in (distilled) water alone) was “unpleasant tingling or mild burning sensation; also recorded: vaginal irritation”. The “irritation, vagina / female genitals” value (vagina; gel in K-Y Lubricating Jelly, about 5% w/v, passive test) was “no tingling, burning, or other unpleasant sensation”, the irritation during intercourse ([4]; gel in K-Y Lubricating Jelly, about 5% w/v) was “no irritation; also recorded: Neither of these salts caused any irritation” and the “irritation of gel / genital lubricant formulations” value ([4]; in gel or genital lubricant, human volunteers) was “did not cause any irritation”. It also gave an MCC (several cell lines) of roughly 100 mM.
